For data set [1] the following is noted: dogs, rectal, aqueous solution; cited from earlier work.
For data set [2] the following is noted: rat; for Halflife / Tmax: mean.
For data set [3] the following is noted: aqueous composition containing MBK, pH 7.0 and pH 9.6, 5 hours. As for the experimental part: Cells in the digestive track, such as CACO-2 cells are typically used to model absorption in the small intestine. CACO-2 cells, developed by the Sloan-Kettering Institute from human epithelial colorectal adenocarcinoma cells, are widely used to predict drug absorption. […] permeability assay (PAMPA) uses an artificial cell membrane to model drug permeability. In either test, the drug is dissolved in an aqueous solution mimicking the target gastric fluid. The fluid is contacted with the membrane, and the passage of the drug through the membrane over a period of time is used to assess permeability.
PAMPA measures how quickly the drug can exit a water-solvated environment and pass through a cell membrane. Since most drugs are hydrophobic, it is expected that there will be significant absorption by the cells lining the digestive tract.

Another data set in a line: in vivo. The note with it: rat.
Setting [4] is: Group B, intravenous, 1.37 mg/kg.

The text below walks through data of patent US20140275259A1, “Direct Lipid to Membrane Drug Delivery” (APPLIED BIORESEARCH, INC., priority 2013, published 2014).

Where two headings read alike, the source gives them in different places.

In the case of `O=C(O)CN(CCN(CC(=O)O)CC(=O)O)CC(=O)O` [EDTA], in data set [1], the absorption is given as approximately 13%.

What is called Tmax is the time at which the peak concentration occurs. One may read the bioavailability as dose-corrected exposure relative to a reference, in per cent. High values mean much systemic uptake, low ones little systemic uptake. Broadly, the AUC is the area under the concentration-time curve, a measure of exposure. A high value points to more exposure. One may read the AUC(0-inf) as total exposure, with the tail of the curve extrapolated. A lower AUC(0-inf) goes with less exposure. As a reminder, the Cmax is the maximum level reached in the sampled fluid or tissue. On to `O=C([O-])CN(CCN(CC(=O)[O-])CC(=O)[O-])CC(=O)[O-].[Ca+2].[Na+].[Na+]` [CaNa2EDTA, calcium disodium ethylenediaminetetraacetate], for which, in data set [2] (setting [4]), the Halflife turned out to be 1.50 h and the Tmax is 4.98 min. Further, in data set [2] (Group C, rectal suppository, 213.5 mg/kg), the Tmax was determined as 25 min. For the same molecule, the Halflife in data set [2] (Group C, rectal suppository, 213.5 mg/kg, terminal elimination phase not observed, calculation interpolated) is reported as 8.20^1 Hour. The “drug absorbed within eight hours” value in data set [2] (suppository with MBK as the excipient) was “over 36.3%”. For the same molecule, the “passage of drug through the artificial cell membrane (PAMPA)” value in data set [3] was “completely negative”. The bioavailability at 8 hours in the data set “in vivo” was determined as 36.3%. In the data set “in vivo” (213.5 mg/kg), the AUC stood at 106000 ng·h/mL, the AUC(0-inf) was 307000 ng·h/mL and the highest level (Cmax) was 30600 ng/mL. In “in vivo” (iv, 1.37 mg/kg), the exposure (AUC) was 1860 ng·h/mL, the AUC(0-inf) amounted to 1910 ng·h/mL and the Cmax was determined as 2070 ng/mL.
